One series has as its system ocular mucous membranes. The format is in vivo, New Zealand white rabbits. The note with it: 0.1 ml aqueous solution dropped into eyelid bag, checked 24 hours after; four male rabbits. The method, then:
(§1) The primary irritation of the skin and ocular mucous membranes by some test compounds mentioned below was checked according to the test methods mentioned below.
The lower eyelids of each of four male New Zealand white rabbits were formed into bags, into which was dropped 0.1 ml of an aqueous surfactant solution, and the upper and lower eyelids were lightly ligated. 24 hours after the dropping, the irritation of the ocular mucous membranes of each rabbit was checked according to the Draize's points mentioned below. The compound tested was evaluated on the basis of the following criteria.

The subject of a further series is skin. The series is classed as in vivo, New Zealand white rabbits. The conditions noted are these: 0.3 ml of aqueous 1 % solution, patch 24 hours, observed 24 hours; four male rabbits. The method, then:
as §1
A patch test plaster, into which 0.3 ml of an aqueous 1 % solution of a test compound had been infiltrated, was airtightly stuck on each of four male New Zealand white rabbits and kept as such for 24 hours. […] The compounds tested were evaluated on the basis of the following criteria.

Where a name gives a salt, the structure may show the parent alone.

As for `CCCCCCCCCCCCCCCCCC[N+](C)(C)C.[Cl-]` [Stearyltrimethylammonium Chloride, reference compound], the “Primary Mucous Membrane Irritation” value in the series with ocular mucous membranes is reported as “Moderate (20 to less than 50)”. Besides, in the series with skin, the “Primary Skin Irritation” value was “Heavy (4 or more)”.

Regarding `CCCCCCCCCCC(O)CN[C@@H](CCCNC(=N)N)C(=O)O.Cl` (stereo partly drawn) [Compound of Production Example 7, N-(2-hydroxydodecyl)-L-arginine hydrochloride], in the series with ocular mucous membranes, the “Primary Mucous Membrane Irritation” value is reported as “Minor (Less than 10)”. In addition, the “Primary Skin Irritation” value in the series on skin is reported as “Minor (Less than 2)”.

As to `CCCCCCCCCCCCOCC(O)CNCCCC[C@H](N)C(=O)O` (stereo partly drawn) [Compound of Production Example 5, Nε-(2-hydroxy-3-dodecyloxy)propyl-L-lysine hydrochloride], the “Primary Mucous Membrane Irritation” value in the series on ocular mucous membranes is “Minor (Less than 10)”. In addition, in the series on skin, the “Primary Skin Irritation” value was “Minor (Less than 2)”.
